# Test results from US20160287589A1, “SUBSTITUTED-IMIDAZOPYRIDAZINES” (BAYER PHARMA AKTIENGESELLSCHAFT, priority 2013, published 2016).
# pIC50: −log10 of the molar value.
# How the values were obtained:
# MKNK1 [1] = molecular target: T1, MKNK1 (Homo sapiens, UniProt Q9BUB5, T385D); assay: MKNK1 kinase assay (MKNK1 TR-FRET assay); format: biochemical; settings: Table 1c; 10 μM ATP, 15 min preincubation
# T1 construct: GST (N); purchased Carna Biosciences 02-145; host or cells: insect cells (baculovirus expression system)
# T1 sequence (Q9BUB5 1-424 isoform Q9BUB5-2 T344D): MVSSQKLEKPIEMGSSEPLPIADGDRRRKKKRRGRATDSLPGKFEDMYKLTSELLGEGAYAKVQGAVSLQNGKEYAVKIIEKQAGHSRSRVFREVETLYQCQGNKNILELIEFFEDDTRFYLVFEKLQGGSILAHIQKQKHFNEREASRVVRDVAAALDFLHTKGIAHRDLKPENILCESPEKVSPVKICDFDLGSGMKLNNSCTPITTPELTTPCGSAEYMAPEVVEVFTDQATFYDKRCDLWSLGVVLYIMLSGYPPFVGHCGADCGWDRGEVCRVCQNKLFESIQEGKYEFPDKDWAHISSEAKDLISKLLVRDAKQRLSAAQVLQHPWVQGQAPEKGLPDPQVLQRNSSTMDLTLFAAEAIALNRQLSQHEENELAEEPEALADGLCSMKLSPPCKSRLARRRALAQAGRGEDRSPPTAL
# MKNK1 [2] = molecular target: T1, MKNK1; assay: MKNK1 kinase high ATP assay (TR-FRET-based); format: biochemical; settings: Table 2c; 2 mM ATP, 15 min preincubation
# How it was run: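 TR-FRET read-out (anti-phospho-S6 Ser236 antibody, Eu/XL665) of biotin-peptide phosphorylation (0.06 μM) at high ATP (2 mM final). Enzyme was GST-MKNK1 full length, T344D, pre-bound to compound for 15 min before a 30 min reaction at 22 °C, pH 7.5. Inhibition scaled between no-inhibitor (0%) and no-enzyme (100%) wells.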
pIC50 (MKNK1 [1]),pIC50 (MKNK1 [2]),SMILES
9.15,9.05,"CCN(CCOC)c1nccc2oc(-c3cnc4ccc(OC[C@H](C)N)nn34)cc12 [III-18, 2-(6-{[(2S)-2-Aminopropyl]oxy}imidazo[1,2-b]pyridazin-3-yl)-N-ethyl-N-(2-methoxyethyl)furo[3,2-c]pyridin-4-amine]"
7.91,7.37,"C[C@H](N)COc1ccc2ncc(-c3cc4c(N5C[C@@H](C)O[C@@H](C)C5)nccc4o3)n2n1 [III-19, (2S)-1-[(3-{4-[(2R,6S)-2,6-Dimethylmorpholin-4-yl]furo[3,2-c]pyridin-2-yl}imidazo[1,2-b]pyridazin-6-yl)oxy]propan-2-amine]"
8.41,7.98,"C[C@H](N)COc1ccc2ncc(-c3cc4c(N(C)CCCO)nccc4o3)n2n1 [III-20, 3-{[2-(6-{[(2S)-2-Aminopropyl]oxy}imidazo[1,2-b]pyridazin-3-yl)furo[3,2-c]pyridin-4-yl](methyl)amino}propan-1-ol]"
7.92,7.48,"C[C@H](N)COc1ccc2ncc(-c3cc4c(N5CCC(N(C)C)CC5)nccc4o3)n2n1 [III-21, 1-[2-(6-{[(2S)-2-Aminopropyl]oxy}imidazo[1,2-b]pyridazin-3-yl)furo[3,2-c]pyridin-4-yl]-N,N-dimethylpiperidin-4-amine]"
8.19,7.85,"C[C@H](N)COc1ccc2ncc(-c3cc4c(N5CCC(CO)CC5)nccc4o3)n2n1 [III-22, {1-[2-(6-{[(2S)-2-Aminopropyl]oxy}imidazo[1,2-b]pyridazin-3-yl)furo[3,2-c]pyridin-4-yl]piperidin-4-yl}methanol]"
7.78,7.35,"C[C@H](N)COc1ccc2ncc(-c3cc4c(N5CCN(c6ccccc6)CC5)nccc4o3)n2n1 [III-23, (2S)-1-({3-[4-(4-Phenylpiperazin-1-yl)furo[3,2-c]pyridin-2-yl]imidazo[1,2-b]pyridazin-6-yl}oxy)propan-2-amine]"
9.40,8.07,"COC[C@H]1CCCN1c1nccc2oc(-c3cnc4ccc(OC[C@H](C)N)nn34)cc12 [III-24, (2S)-1-[(3-{4-[(2R)-2-(Methoxymethyl)pyrrolidin-1-yl]furo[3,2-c]pyridin-2-yl}imidazo[1,2-b]pyridazin-6-yl)oxy]propan-2-amine]"
8.04,7.86,"C[C@H](N)COc1ccc2ncc(-c3cc4c(N5CCOC[C@H]5C)nccc4o3)n2n1 [III-25, (2S)-1-[(3-{4-[(3R)-3-Methylmorpholin-4-yl]furo[3,2-c]pyridin-2-yl}imidazo-[1,2-b]pyridazin-6-yl)oxy]propan-2-amine]"
7.51,7.01,"COC[C@@H]1CCCN1c1nccc2oc(-c3cnc4ccc(OC[C@H](C)N)nn34)cc12 [III-27, (2S)-1-[(3-{4-[(2S)-2-(Methoxymethyl)pyrrolidin-1-yl]furo[3,2-c]pyridin-2-yl}imidazo[1,2-b]pyridazin-6-yl)oxy]propan-2-amine]"
8.30,7.98,"C[C@H](CN)Oc1ccc2ncc(-c3cc4c(N5CCOCC5)nccc4o3)n2n1 [III-30, (2R)-2-({3-[4-(Morpholin-4-yl)furo[3,2-c]pyridin-2-yl]imidazo[1,2-b]pyridazin-6-yl}oxy)propan-1-amine]"
9.30,8.52,"COC[C@H]1CCCN1c1nccc2oc(-c3cnc4ccc(O[C@H](C)CN)nn34)cc12 [III-31, (2R)-2-[(3-{4-[(2R)-2-(Methoxymethyl)pyrrolidin-1-yl]furo[3,2-c]pyridin-2-yl}imidazo[1,2-b]pyridazin-6-yl)oxy]propan-1-amine]"
9.22,8.82,"CCN(CCOC)c1nccc2oc(-c3cnc4ccc(O[C@H](C)CN)nn34)cc12 [III-32, 2-(6-{[(2R)-1-Aminopropan-2-yl]oxy}imidazo[1,2-b]pyridazin-3-yl)-N-ethyl-N-(2-methoxyethyl)furo[3,2-c]pyridin-4-amine]"
8.96,8.89,"CCCN(CCOC)c1nccc2oc(-c3cnc4ccc(O[C@H](C)CN)nn34)cc12 [III-33, 2-(6-{[(2R)-1-Aminopropan-2-yl]oxy}imidazo[1,2-b]pyridazin-3-yl)-N-(2-methoxyethyl)-N-propylfuro[3,2-c]pyridin-4-amine]"
8.46,8.13,"COCCN(C)c1nccc2oc(-c3cnc4ccc(O[C@H](C)CN)nn34)cc12 [III-34, 2-(6-{[(2R)-1-Aminopropan-2-yl]oxy}imidazo[1,2-b]pyridazin-3-yl)-N-(2-methoxyethyl)-N-methylfuro[3,2-c]pyridin-4-amine]"
9.00,9.05,"CCN(CCOC)c1nccc2oc(-c3cnc4ccc(OC[C@@H]5COCCN5)nn34)cc12 [III-35, N-Ethyl-N-(2-methoxyethyl)-2-{6-[(3S)-morpholin-3-ylmethoxy]imidazo[1,2-b]pyridazin-3-yl}furo[3,2-c]pyridin-4-amine]"
7.94,7.43,"c1cc2oc(-c3cnc4ccc(OC[C@@H]5COCCN5)nn34)cc2c(N2CCOCC2)n1 [III-36, 3-[4-(Morpholin-4-yl)furo[3,2-c]pyridin-2-yl]-6-[(3S)-morpholin-3-ylmethoxy]imidazo[1,2-b]pyridazine]"
8.96,7.95,"COC[C@H]1CCCN1c1nccc2oc(-c3cnc4ccc(OC[C@@H]5COCCN5)nn34)cc12 [III-37, 3-{4-[(2R)-2-(Methoxymethyl)pyrrolidin-1-yl]furo[3,2-c]pyridin-2-yl}-6-[(3S)-morpholin-3-ylmethoxy]imidazo[1,2-b]pyridazine]"
9.30,8.32,"CCN(CCOC)c1nccc2oc(-c3cnc4ccc(OC[C@H]5COCCN5)nn34)cc12 [III-38, N-Ethyl-N-(2-methoxyethyl)-2-{6-[(3R)-morpholin-3-ylmethoxy]imidazo[1,2-b]pyridazin-3-yl}furo[3,2-c]pyridin-4-amine]"
8.82,8.59,"CCN(CCO)c1nccc2oc(-c3cnc4ccc(OC[C@@H]5COCCN5)nn34)cc12 [III-40, 2-[Ethyl(2-{6-[(3S)-morpholin-3-ylmethoxy]imidazo[1,2-b]pyridazin-3-yl}furo[3,2-c]pyridin-4-yl)amino]ethanol]"
7.92,7.75,"CCN(CCOC)c1nccc2oc(-c3cnc4ccc(OCC5CCCCN5)nn34)cc12 (stereo not drawn) [III-41, N-Ethyl-N-(2-methoxyethyl)-2-[6-(piperidin-2-ylmethoxy)imidazo[1,2-b]pyridazin-3-yl]furo[3,2-c]pyridin-4-amine]"
8.66,8.33,"CS(=O)(=O)CCCOc1ccc2ncc(-c3cc4c(N5CCOCC5)nccc4o3)n2n1 [III-42, 6-[3-(Methylsulfonyl)propoxy]-3-[4-(morpholin-4-yl)furo[3,2-c]pyridin-2-yl]imidazo[1,2-b]pyridazine]"
8.24,8.28,"CN1CCN(c2nccc3oc(-c4cnc5ccc(OCCCS(C)(=O)=O)nn45)cc23)CC1 [III-43, 3-[4-(4-Methylpiperazin-1-yl)furo[3,2-c]pyridin-2-yl]-6-[3-(methylsulfonyl)-propoxy]imidazo[1,2-b]pyridazine]"
8.26,7.83,"CS(=O)(=O)CCCOc1ccc2ncc(-c3cc4c(N5CCCC5)nccc4o3)n2n1 [III-44, 6-[3-(Methylsulfonyl)propoxy]-3-[4-(pyrrolidin-1-yl)furo[3,2-c]pyridin-2-yl]imidazo[1,2-b]pyridazine]"
8.36,8.09,"CS(=O)(=O)CCCOc1ccc2ncc(-c3cc4c(N5CCCCC5)nccc4o3)n2n1 [III-45, 6-[3-(methylsulfonyl)propoxy]-3-[4-(piperidin-1-yl)furo[3,2-c]pyridin-2-yl]imidazo[1,2-b]pyridazine]"
8.41,8.44,"CN(C)[C@@H]1CCN(c2nccc3oc(-c4cnc5ccc(OCCCS(C)(=O)=O)nn45)cc23)C1 [III-46, (3R)—N,N-Dimethyl-1-(2-{6-[3-(methylsulfonyl)propoxy]imidazo[1,2-b]pyridazin-3-yl}furo[3,2-c]pyridin-4-yl)pyrrolidin-3-amine]"
7.87,7.67,"CN(CCCN1CCCC1)c1nccc2oc(-c3cnc4ccc(OCCCS(C)(=O)=O)nn34)cc12 [III-47, N-methyl-2-{6-[3-(methylsulfonyl)propoxy]imidazo[1,2-b]pyridazin-3-yl}-N-[3-(pyrrolidin-1-yl)propyl]furo[3,2-c]pyridin-4-amine]"
7.92,7.49,"CC(C)(C)N1CCN(c2nccc3oc(-c4cnc5ccc(OCCCS(C)(=O)=O)nn45)cc23)CC1 [III-48, 3-[4-(4-tert-Butylpiperazin-1-yl)furo[3,2-c]pyridin-2-yl]-6-[3-(methylsulfonyl)-propoxy]imidazo[1,2-b]pyridazine]"
7.67,7.41,"CC(C)(C)OC(=O)N1CCN(c2nccc3oc(-c4cnc5ccc(OCCCS(C)(=O)=O)nn45)cc23)CC1 [III-49, tert-Butyl 4-(2-{6-[3-(methylsulfonyl)propoxy]imidazo[1,2-b]pyridazin-3-yl}furo[3,2-c]pyridin-4-yl)piperazine-1-carboxylate]"

SMILES,pIC50 (MKNK1 [1]),pIC50 (MKNK1 [2])
"CCN(CCOC(C)(C)C)c1nccc2oc(-c3cnc4ccc(OC[C@H](C)N)nn34)cc12 [III-26, 2-(6-{[(2S)-2-Aminopropyl]oxy}imidazo[1,2-b]pyridazin-3-yl)-N-(2-tert-butoxyethyl)-N-ethylfuro[3,2-c]pyridin-4-amine]",8.77,9.10
"CCN(CCOC(C)(C)C)c1nccc2oc(-c3cnc4ccc(OC[C@@H]5COCCN5)nn34)cc12 [III-39, N-(2-tert-Butoxyethyl)-N-ethyl-2-{6-[(3S)-morpholin-3-ylmethoxy]imidazo-[1,2-b]pyridazin-3-yl}furo[3,2-c]pyridin-4-amine]",9.05,9.30
